Where “and” joins values, the source holds several entries; their conditions need not be identical. Equal entries are not always repeated.
What was measured:
[1] = 298.15 K
[2] = xn = mol fraction of the nth substance listed; settings: 298.15 K

CCOC(C)=O [ethyl acetate]
Settings	surface tension liquid-gas [mN/m]
[1], Drop volume	23.93

COC(C)=O [methyl ethanoate] + O
[2], Drop volume
Settings	surface tension liquid-gas [mN/m]
x1 = 0.004	61.87
x1 = 0.0047	60.57
x1 = 0.0056	59.67
x1 = 0.0069	57.62
x1 = 0.0093	54.72
x1 = 0.0115	53.25
x1 = 0.0147	49.91
x1 = 0.0183	48.18
x1 = 0.0214	46.68
x1 = 0.0245	44.35
x1 = 0.029	42.63
x1 = 0.0341	40.26
x1 = 0.0433	36.64
x1 = 0.0523	33.49
x1 = 0.0586	31.61
x1 = 0.0702	29.12
x1 = 1	24.79

O [water] + CCCCOC(C)=O
Settings	surface tension liquid-gas [mN/m]
[2], x2 = 0	71.57

O [water] + COC(C)=O
Settings	surface tension liquid-gas [mN/m]
[2], Drop volume, x2 = 0	71.57

COC(C)=O [methyl ethanoate]
Settings	surface tension liquid-gas [mN/m]
[1], Drop volume	24.79

CCCOC(C)=O [propyl ethanoate]
Settings	surface tension liquid-gas [mN/m]
[1], Drop volume	24.22

CCCCOC(C)=O [butyl ethanoate] + O
[2]
Settings	surface tension liquid-gas [mN/m]
x1 = 7.97e-05	63.74
x1 = 7.99e-05	64.49
x1 = 8.76e-05	63.71
x1 = 8.81e-05	64.3
x1 = 0.000104	62.6
x1 = 0.000124	61.81
x1 = 0.000131	61.47
x1 = 0.000142	61.15
x1 = 0.000173	59.3
x1 = 0.000216	57.5
x1 = 0.000274	55.53
x1 = 0.000343	53.31
x1 = 0.000439	51.12
x1 = 0.000536	49.09
x1 = 0.00067	46.9
x1 = 0.000754	45.57
x1 = 0.00081	44.42
x1 = 0.000933	43.1
x1 = 1	24.91

O [water]
Settings	surface tension liquid-gas [mN/m]
[1], Drop volume	71.57

CCCOC(C)=O [propyl ethanoate] + O
[2], Drop volume
Settings	surface tension liquid-gas
x1 = 0.00017	65.86 mN/m
x1 = 0.00023	64.54 mN/m
x1 = 0.00031	62.64 mN/m and 63.23 mN/m
x1 = 0.00038	61.64 mN/m
x1 = 0.00041	61.43 mN/m
x1 = 0.00049	60.29 mN/m
x1 = 0.00052	59.4 mN/m
x1 = 0.00057	59.02 mN/m
x1 = 0.00071	57.47 mN/m
x1 = 0.00074	56.94 mN/m
x1 = 0.00083	56.17 mN/m
x1 = 0.00103	54.38 mN/m
x1 = 0.00104	53.7 mN/m
x1 = 0.00114	53.49 mN/m
x1 = 0.00116	53.22 mN/m
x1 = 0.00142	50.93 mN/m and 51.11 mN/m
x1 = 0.00158	49.17 mN/m
x1 = 0.00159	49.3 mN/m
x1 = 0.00208	46.76 mN/m
x1 = 0.00239	45.44 mN/m
x1 = 0.00318	42.65 mN/m
x1 = 0.00355	41.31 mN/m
x1 = 0.00367	40.63 mN/m
x1 = 0.0038	40.55 mN/m
x1 = 1	24.22 mN/m

CCOC(C)=O [ethyl acetate] + O
[2], Drop volume
Settings	surface tension liquid-gas [mN/m]
x1 = 0.0011	62.08
x1 = 0.0013	60.95
x1 = 0.0014	60.43
x1 = 0.0017	59.33
x1 = 0.0018	58.8
x1 = 0.0025	56.64
x1 = 0.0033	54.17
x1 = 0.0044	51.16
x1 = 0.0054	48.98
x1 = 0.0061	47.92
x1 = 0.008	44.22
x1 = 0.0089	43.31
x1 = 0.0118	41.37
x1 = 0.0141	38.97
x1 = 1	23.93

O [water] + CCOC(C)=O
Settings	surface tension liquid-gas [mN/m]
[2], Drop volume, x2 = 0	71.57

O [water] + CCCOC(C)=O
Settings	surface tension liquid-gas [mN/m]
[2], Drop volume, x2 = 0	71.57

CCCCOC(C)=O [butyl ethanoate]
Settings	surface tension liquid-gas [mN/m]
[1]	24.91
